Results published in patent US10314920B2, “Therapeutic dendrimers” (ASTRAZENECA AB, priority 2017, dated 2019).
Converted amounts (≈) assume the structure as drawn. “And” between values parts separate entries of the source, which are not always exact repeats. Identical values can stand only once. “Also recorded” adds a separate entry of the source.

Columns and labels:
[1] = system: SuDHL-4 xenograft; test: SuDHL-4 xenograft model in SCID mice, alone and with rituximab; type: in vivo, mouse
Description: The SuDHL-4 xenograft model was used to test the ability of Examples 6 and 9 to enhance the activity of rituximab in inhibiting tumor growth. When tumors grew to approximately 175-250 mm^3, mice were randomized to the following groups:
The tumor sizes were measured 2 times a week and calculated as: Tumor Volume=(A×B^2)/2 where A and B are the tumor length and width (in mm), respectively.
Table 17 summarizes the tumor growth inhibition (TIC) and tumor growth delay (T-C) values calculated as % Inhibition & % Regression. The calculation is based on the geometric mean of RTV in each group.
(§1) On specific day, for each treated group, calculate Inhibition value by formula: Inhibition %=(CG−TG)*100/(CG−1), in which “CG” means the geometric mean of rtv of the control group and “TG” means the Geometric Mean of Relative Tumor Volume (rtv) of the treated group. “CG” should use the corresponding control group of the treated group when calculated. If Inhibition >100%, then it's necessary to calculate the Regression by formula: Regression=1−TG

[2] = Cardiovascular telemetry studies in the rat; conditions: Compound A 10 mg/kg, single 30-minute intravenous infusion
Description: The telemetry transmitters were placed in the abdominal muscle and the arterial blood pressure catheter was placed in the abdominal aorta. The ECG electrodes were sutured to the dorsal surface of the xiphoid process and at the anterior mediastinum.
Compound A was administered at dose levels of 0 and 10 mg/kg.
Cardiovascular parameters were recorded continuously via receivers placed beneath the home cage for at least 1 hour pre-dose and up to 72 hours post-dose. Blood samples were taken to determine the level of plasma exposure of Compound A and all dendrimers, with clinical pathology and limited tissues for target organ histopathology taken from animals dosed with the macromolecule constructs only.

[3] = Plasma protein binding, Equilibrium Dialysis RED device, dog plasma; type: in vitro ADME; conditions: male, Beagle, pooled frozen plasma, 30 hours at 37° C., read-out: percentage unbound
Description: (§2) Protein binding of Compound A (prepared as DMSO stock solutions and spiked into plasma at nominal incubation concentrations of 0.1, 1, 10 and 100 μmol/L) was evaluated in pooled frozen plasma obtained from male CD-1 mice, male Han Wistar rats, female New Zealand White rabbits, male Beagle dogs and male humans in triplicate using Equilibrium Dialysis RED device methodology (Waters N J et al., Validation of a Rapid Equilibrium Dialysis Approach for the Measurement of Plasma Protein Binding, Journal of Pharmaceutical Sciences; 2008; Volume 97; Issue 10; Pages 4586-4595, 2008). Incubations were conducted over an equilibration time of 30 hours at 37° C. Sample analysis was by HPLC-MS/MS and employed an [^13C, ^2H7] Compound A internal standard using the following bioanalytical method: […]

[4] = Plasma protein binding, Equilibrium Dialysis RED device, rat plasma; type: in vitro ADME; conditions: male, Han Wistar, pooled frozen plasma, 30 hours at 37° C., read-out: percentage unbound
Description: as §2

[5] = Solubility of Compound A (Form B), shake flask method; type: physicochemical; conditions: thermodynamic from solid, crystalline Form B, room temperature 24 hours
Description: The solubility of Compound A (Form B) was determined in water and propylene glycol. […] The solutions were centrifuged using ultra centrifuge for 30 min at 40,000 rpm, supernatant were transferred to a new centrifuge tube and centrifuged for another 30 min at 40,000 rpm. The propylene glycol supernatant was then assayed using a UV-HPLC method. The water supernatant was ultra-centrifuged for a third time before assay.

[6] = system: RS4;11 Acute Lymphoblastic Leukemia Xenograft; test: Efficacy of Compound A (HP-β-CD) at different infusion length in RS4;11 xenograft model in rats; type: in vivo, rat; conditions: single IV 5 hr infusion, 30% HP-β-CD
Description: Rag2−/− rats purchased from (SAGE) were inoculated with RS4;1 (10×10^6 cells/rat). When tumors grew to approximately […], rats were randomized to vehicle control (30% HP-β-CD) or Compound A 5 mg/kg in Vehicle 1) delivered as a single IV 30 min infusion (FIG. 6) and Vehicle control (30% HP-β-CD) or Compound A 5 mg/kg, 3 mg/kg and 1 mg/kg in Vehicle 1 delivered as a single IV 5 hr infusion (FIG. 7). The tumor sizes were measured twice a week and calculated as: Tumor Volume=(A×B^2)/2 where A and B are the tumor length and width (in mm), respectively.

[7] = Plasma protein binding, Equilibrium Dialysis RED device, human plasma; type: in vitro ADME; conditions: male, pooled frozen plasma, 30 hours at 37° C., read-out: percentage unbound
Description: as §2

[8] = system: RS4;11 cells; test: Efficacy of dendrimers in RS4;11 xenograft model in mice; type: in vivo, mouse
Description: 5×10^6 RS4;11 cells in a total volume of 100 μl were inoculated subcutaneously at the mouse right flank. When the tumor volume reached approximately ˜350 mm^3, tumor-bearing mice were randomized into groups of 4 animals and treated with either control Vehicle (PBS) or treatment.
as §1

[9] = Log D, octanol/water shake-flask; type: physicochemical; conditions: octanol / 10 mM sodium phosphate buffer pH 7.4
Description: Lipophilicity (Log D) of Compound A was measured using octanol/water shake-flask principles. The aqueous solution used was a 10 mM sodium phosphate buffer with pH adjusted to 7.4. Octanol was used as the organic partitioning layer.

[10] = Plasma protein binding, Equilibrium Dialysis RED device, mouse plasma; type: in vitro ADME; conditions: male, CD-1, pooled frozen plasma, 30 hours at 37° C., read-out: percentage unbound
Description: as §2

[11] = Plasma protein binding, Equilibrium Dialysis RED device, rabbit plasma; type: in vitro ADME; conditions: female, New Zealand White, pooled frozen plasma, 30 hours at 37° C., read-out: percentage unbound
Description: as §2

[12] = system: OCI-Ly10 tumor cells; test: In vivo anti-tumor activity in human DLBCL model (OCI-Ly10); set-up: species or system mouse; conditions: single agent, 12.5 mg/kg twice a day oral
Description: 5×10^6 OCI-Ly10 tumor cells were injected subcutaneously in the right flank of C.B.-17 SCID female mice in a volume of 0.1 mL containing 50% matrigel. Example 9 was formulated in citrate/phosphate buffer pH 5.0, diluted 1 to 10 with 5% glucose containing 1% w/v Kolliphor HS15, and dosed as a weekly intravenous (iv) administration at a volume of 5 mL/kg at a dose of 103 mg/kg (30 mg/kg API). Acalabrutinib was formulated in 0.5% hydroxypropyl methyl cellulose/0.2% Tween 80, and dosed twice a day (bid) as an oral (po) administration at a volume of 10 mL/kg at a dose of 12.5 mg/kg. Tumor volumes (measured by caliper), animal body weight, and tumor condition were recorded twice weekly for the duration of the study. The tumor volume was calculated using the formula:length (mm)×width (mm)^2×0.52. For efficacy studies, growth inhibition from the start of treatment was assessed by comparison of the differences in tumor volume between control and treated groups. Dosing began when mean tumor size reached approximately 166 mm3.

[13] = system: NCI-H1048 tumor cells; test: In vivo anti-tumor activity in human small cell lung cancer tumor model (NCI-H1048); set-up: species or system mouse; conditions: 15 mg/kg daily (qd), oral
Description: AZD2014 was formulated in 0.5% hydroxypropyl methylcellulose/0.1% Tween 80 and dosed oral in a volume of 10 ml/kg 5×10^6 NCI-H1048 tumor cells were injected subcutaneously in the right flank of C.B.-17 SCID female mice in a volume of 0.1 mL containing 50% matrigel. Tumor volume (measured by caliper) was calculated using the formula:length (mm)×width (mm)^2×0.52. For efficacy studies, mice were randomized based on tumor volume and growth inhibition was assessed by comparison of the differences in tumor volume between control and treated groups. Dosing began when mean tumor volume reached approximately 124 mm^3.

## rituximab [reference compound]
[1]; rituximab 10 mg/kg
  T-C: >16 days
[1]; rituximab 10 mg/kg i.p. once a week for 5 weeks
  % Inhibition (TIC) Day (41): 75.27%

## CN(CCO)CC[C@H](CSc1ccccc1)Nc1ccc(S(=O)(=O)NC(=O)c2ccc(N3CCC([C@@H](O)c4ccccc4-c4ccc(Cl)cc4)CC3)cc2)cc1S(=O)(=O)C(F)(F)F [Compound A, 4-(4-((R)-(4′-chlorobiphenyl-2-yl)(hydroxy)methyl)piperidin-1-yl)-N-(4-((R)-4-((2-hydroxyethyl)(methyl)amino)-1-(phenylthio)butan-2-ylamino)-3-(trifluoromethylsulfonyl)phenylsulfonyl)benzamide]
[2]
  Cardiovascular: biphasic decrease in systolic and mean arterial blood pressure; also recorded: increases in heart rate; also recorded: decrease in QRS amplitude
  In-life: three rats were found dead and 3 found dead
[3]
  fraction unbound at 30 h, 100 μmol/L: < 1e-05
[4]
  fraction unbound at 30 h, 100 μmol/L: < 1e-05
[5]; organic solvent or mixture, propylene glycol
  solubility at 24 h: 6120 µg/mL (≈ 6.47 mM)
[5]; water, final pH 8.7
  solubility at 24 h: < 1 µg/mL
[6]
  efficacy when the infusion was prolonged: Comparable efficacy
[7]
  fraction unbound at 30 h, 100 μmol/L: 1.96e-05
[8]; Compound A 5 mg/kg
  % Inhibition Day (47): >100%
  % Regression Day(47): 90%
[8]; Compound A HP-β-CD 10 mg/kg IV once
  regression: 90%
[9]
  logD: > 3.5
[10]
  fraction unbound at 30 h, 100 μmol/L: 2.35e-05
[11]
  fraction unbound at 30 h, 100 μmol/L: 1.53e-05

## CC#CC(=O)N1CCC[C@H]1c1nc(-c2ccc(C(=O)Nc3ccccn3)cc2)c2c(N)nccn12 [acalabrutinib, reference compound]
[12]
  tumor growth inhibition (TGI): ~58%

## CNC(=O)c1cccc(-c2ccc3c(N4CCOC[C@@H]4C)nc(N4CCOC[C@@H]4C)nc3n2)c1 [AZD2014, vistusertib, reference compound]
[13]
  TGI: 84%
